Data as given in patent US12516063B2, “Substituted 7-(methylamino)pyrazolo[1,5-a]pyrimidine-3-carboxamide derivatives for treating autoimmune diseases” (Eli Lilly and Company, priority 2020, dated 2026).

What was measured:
[1] = target: T1, pseudokinase domain (JH2) of human TYK2 (Homo sapiens, UniProt P29597); assay: TYK2-JH2 Tracer Binding Assay; conditions: His-tagged TYK2-JH2 0.200 nM, Tracer 2.00 nM, 30 minutes, TR-FRET; n=1
T1 construct: The pseudokinase domain (JH2) of human JAK (Janus family of cytoplasmic tyrosine kinases) family tyrosine kinase 2 (TYK2); made in house
Text: The pseudokinase domain (JH2) of human JAK (Janus family of cytoplasmic tyrosine kinases) family tyrosine kinase 2 (TYK2) (Genbank NP_003322) with an N-terminal His6 tag is expressed in baculovirus and purified by HisPur Ni-NTA affinity and Superdex 200 size-exclusion chromatography. The compound prepared in Preparation 11, a conjugate of Alexa Fluor 647 dye (Thermo Fisher Scientific) and a suitable TYK2 JH2 binder, is referred to herein as “the Tracer”. A 3 fold, 10 point serial dilution of compound, Example 1 and Example 2, are prepared in 100% DMSO and 50 nL/well transferred to a Proxiplate-384F white plate (PerkinElmer 6008280) using acoustic liquid handling. Control wells used to determine percent inhibition contained 100% DMSO (50 nL) and either assay buffer containing the Tracer (2.00 nM final concentration) (min, low FRET) or diluted TYK2-JH2 enzyme (0.200 nM final concentration) and the Tracer (2.00 nM final concentration) (max, high FRET). […] After 30 minutes, the plate is counted on a PerkinElmer Envision with the following settings: Excitation (340 nm), Tracer Emission (665 nm) and LanthaScreen Eu-anti-His Antibody Emission (615 nm). The ratio of Tracer Emission (665 nm) over LanthaScreen Eu-anti-His Antibody Emission (615 nm) is determined.

[2] = system: IFNα signaling through pSTAT1 in TF1 cells; assay: Inhibition of IFNα Signaling Through pSTAT1 in TF1 Cells; assay type: cell-based; conditions: Homo sapiens, TF-1, 1 hour pre-incubation, 10 ng/mL IFNα2 for 20 minutes, GeoMetric mean (SEM), read-out: IC50 (inhibition of p-Stat1 (Tyr701))
Method: TF1 cells (ATCC, CL-2003) are grown in RPMI 1640 (GIBCO) supplemented with 10% dialyzed FBS, 0.1 mg/mL Ampicillin and 2 ng/mL granulocyte macrophage colony stimulating factor. TF1 cells (100 K per well) are seeded in a 96-well poly-D-lysine coated plates in serum-free DMEM and incubated overnight at 37° C. under 5% CO2. Example 1 is serially diluted in DMSO, added to the cells, and incubated at 37° C. for 1 hour. Cells are then stimulated with 10 ng/mL IFNα2 at 37° C. for 20 minutes. After removing the medium, the cells are lysed in buffer containing Halt protease and phosphatase inhibitor cocktail (Thermo Scientific #78441) at ambient temperature for 30 minutes. The amount of p-Stat1 (Tyr701) is quantified as light emission at 615 nm using the AlphaLISA SureFire Ultra p-Stat1 (Tyr701) assay kit (Perkin Elmer #ALSU-PST1-A50K) following the vendor's recommended protocol.

[3] = system: IL-23 signaling (STAT3 phosphorylation) in Kit225 cells; assay: IL23 pSTAT3 AlphaLISA Assay; assay type: cell-based; conditions: 1 hour pre-incubation, IL23 25 ng/mL for 30 minutes, GeoMetric mean (SEM), read-out: relative IC50 (IL23 pSTAT3 AlphaLISA)
Method: IL2-dependent Kit225 cells (University of Texas MD Anderson Cancer Center) expressing endogenous IL23 receptors are stably transduced with the Lenti STAT3 Reporter linked to firefly luciferase (SABiosciences CLS-6028L). These cells are used to monitor TYK2 activity by quantifying gene expression caused by STAT3 phosphorylation following induction by IL23 in the presence of IL2 using AlphaLISA technology (TGR Biosciences ALSU-TST3-A50K). The cells are grown in RPMI 1640 (Gibco 22400) supplemented with 10% FBS (Invitrogen 10082), 1×Pen/Strep (Gibco 15140-122), 200 ng/ml Puromycin (Sigma P9620), and fresh 10 ng/ml recombinant human IL2 (R&D Systems 202-IL-50).
For assay preparation, cells are dispensed into Biocoat black poly-d-lysine coated clear bottom 384-well plates (Becton Dickinson Bio-Coat 35-4640) in DMEM (Sigma D5796) at 300,000 cells/well and allowed to incubate overnight at 37° C. Compounds solubilized in DMSO are serially diluted 1:3 to produce a 10-point concentration response curve (final DMSO=0.1%). Cells are pre-incubated with Example 1 for 1 hour at 37° C., then stimulated with IL23 (25 ng/mL final) for 30 minutes. […] The AlphaLISA reaction is performed following the vendor's recommended protocol, and the […] are measured using an Envision plate reader (Perkin Elmer).

T1 sequence (P29597 589-875 limits assumed): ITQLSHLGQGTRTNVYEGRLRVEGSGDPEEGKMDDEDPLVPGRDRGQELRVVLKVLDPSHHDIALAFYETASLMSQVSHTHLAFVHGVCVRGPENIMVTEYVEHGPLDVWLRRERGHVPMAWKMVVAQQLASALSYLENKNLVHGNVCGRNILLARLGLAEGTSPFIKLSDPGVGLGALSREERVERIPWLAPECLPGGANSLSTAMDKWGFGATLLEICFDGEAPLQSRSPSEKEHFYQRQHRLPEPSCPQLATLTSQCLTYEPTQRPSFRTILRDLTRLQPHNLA

Row | IC50 [1] [nM] | IC50 [2] [nM] | IC50 [3] [nM] | Structure (SMILES)
1 | < 0.254 | 38 | 29 | CCOc1cccc(Nc2cc(NC)n3ncc(C(=O)N[C@@H]4CCN(C)C4=O)c3n2)n1 [Example 1, 5-[(6-Ethoxy-2-pyridyl)amino]-7-(methylamino)-N-[(3R)-1-methyl-2-oxo-pyrrolidin-3-yl]pyrazolo[1,5-a]pyrimidine-3-carboxamide]
2 | < 0.254 | 84 | 60 | CNc1cc(Nc2cc(C)cc(C)n2)nc2c(C(=O)N[C@@H]3CCN(C)C3=O)cnn12 [Example 2, 5-[(4,6-Dimethyl-2-pyridyl)amino]-7-(methylamino)-N-[(3R)-1-methyl-2-oxo-pyrrolidin-3-yl]pyrazolo[1,5-a]pyrimidine-3-carboxamide]
